According to patent publication US7572768B2, “Methods for identifying compounds for regulating muscle mass or function using corticotropin releasing factor receptors” (priority 2001, dated 2009):

Tests used:
[1] = system: disuse-induced atrophy of skeletal muscle; test: mouse leg casting disuse atrophy model; type: in vivo; conditions: ten days
Method: (§1) Legend: A—physiological saline (control); B—theophylline; C—sauvagine (0.03 mg/kg)+theophylline; D—sauvagine (0.1 mg/kg)+theophylline; E—sauvagine (0.3 mg/kg)+theophylline; *—p≦0.05 compared to saline. Following casting of the right hind leg, male mice were injected subcutaneously in the midscapular region twice daily, with sauvagine or vehicle control (physiological saline) for ten days at the daily delivered dose indicated. Sauvagine was co-administered with twice daily intra-peritoneal dosing of the phosphodiesterase inhibitor theophylline (30 mg/kg). On day ten, the medial gastrocnemius and tibialis anterior muscles were removed and weighed to determine the degree of atrophy.
as §1, with “B—urocortin” for “B—theophylline; C—sauvagine (0.03 mg/kg)+theophylline; D—sauvagine (0.1 mg/kg)+theophylline; E—sauvagine”, “urocortin” for “sauvagine”, “days. Urocortin was administered” for “days”, “doses indicated in the description of FIGS. 6A and 6B. Urocortin” for “daily delivered dose indicated. Sauvagine”
Legend: A—non casted muscle control; B—casted muscle, saline control; C—casted muscle, sauvagine (0.3 mg/kg)+theophylline (30 mg/kg); *—p≦0.05 compared to saline. Following casting of the right hind leg, male mice were injected subcutaneously in the midscapular region twice daily, with either sauvagine or vehicle control (physiological saline) for ten days at the doses indicated above. Sauvagine was co-administered 30 mg/kg theophylline. On day ten, the EDL and soleus muscles were removed and absolute force and mass measurements taken to determine the degree of atrophy.
The leg casting disuse atrophy model involves casting one hind leg of an animal from the knee down through the foot. Typically, muscle mass is reduced 20-40% after ten days of casting. Following casting, test compounds are administered by injection or by continuous infusion via implantation of an osmotic minipump (e.g., Alzet, Palo Alto, Calif.) to determine their effect on leg casting induced skeletal muscle atrophy. At various times following leg casting, the extent of atrophy in the affected muscles is analyzed as described above for the denervation model.
The extensor digitorum longus (EDL) and soleus muscles are removed, tendon-to-tendon from the casted mouse leg. A silk suture is tied to each tendon of the isolated muscles and the muscles are placed into a plexiglass chamber filled with Ringer solution (137 mM sodium chloride, 24 mM sodium bicarbonate, 11 mM glucose, 5 mM potassium chloride, 1 mM magnesium sulfate, 1 mM sodium phosphate, 0.025 mM tubocurarine, all at pH 7.4 and oxygenated with 95% oxygen/5% carbon dioxide) constantly bubbled with 95% oxygen/5% carbon dioxide maintained at 25° C. Muscles are aligned horizontally between a servomotor lever arm (Model 305B-LR Cambridge Technology Inc., Watertown Mass., USA) and the stainless steel hook of a force transducer (Model BG-50; Kulite Semiconductor Products Inc., Leonia, N.J., USA) and field stimulated by pulses transmitted between two platinum electrodes placed longitudinally on either side of the muscle. Square wave pulses (0.2 ms duration) generated by a personal computer with a Labview board (Model PCI-MIO 16E-4), Labview Inc., Austin, Tex., USA) are amplified (Acurus power amplifier model A25, Dobbs Ferry, N.Y., USA) to increase titanic contraction. Stimulation voltage and muscle length (Lo) are adjusted to obtain maximum isometric twitch force. Maximum titanic force production (Po) is determined from the plateau of the frequency-force relationship.

[2] = system: denervation-induced atrophy of skeletal muscle; test: mouse sciatic nerve denervation atrophy model; type: in vivo
Method: Legend: A—physiological saline (control); B—sauvagine (0.01 mg/kg)+theophylline; C—sauvagine (0.03 mg/kg)+theophylline; D—sauvagine (0.1 mg/kg)+theophylline; E—sauvagine (1.0 mg/kg)+theophylline; *—p≦0.05 compared to saline. Following denervation of the right sciatic nerve, male mice were injected subcutaneously in the midscapular region twice daily with sauvagine, at the doses indicated above or vehicle control (physiological saline) for nine days. Sauvagine was co-administered with 30 mg/kg theophylline. On day nine, the medial gastrocnemius muscle was removed and weighed to determine the degree of atrophy.
Legend: A—water (control); B—sauvagine (0.1 mg/kg/d); C—sauvagine (0.3 mg/kg/d); D—sauvagine (1.0 mg/kg/d); *—p≦0.05 compared to water. Following denervation of the right sciatic nerve, male mice were dosed with either sauvagine or vehicle control (physiological saline) by continuous infusion using an Alzet osmotic minipump at 5 μl/hr until the end of the experimental period (without additional theophylline). The daily delivered dose of sauvagine is indicated above. Minipump implantation was performed at the time of sciatic nerve denervation. On day nine the tibialis anterior muscle was removed and weighed to determine the degree of atrophy.
Legend: A—water (control); B—sauvagine (1 mg/kg/d); C—urocortin (1.0 mg/kg/d); *—p≦0.05 compared to water. Following denervation of the right sciatic nerve, male mice were dosed with the above indicated agents or vehicle control (physiological saline) by continuous infusion using an Alzet osmotic minipump at 5 μl/hr until the end of the experimental period (without additional theophylline). The daily delivered dose of the agents is indicated above. Minipump implantation was performed at the same time as the sciatic nerve denervation. On day nine the tibialis anterior muscle was removed and weighed to determine the degree of atrophy.
Legend: A-C—wild-type mice; D-F—CRF2R knockout mice. A and D—water (control); B and E—sauvagine (0.3 mg/kg/d); C and F—sauvagine (1.0 mg/kg/d); *—p≦0.05 compared to saline. Following denervation of the right sciatic nerve, female wild-type and CRF2R knockout mice were dosed with sauvagine or vehicle control by continuous infusion using an Alzet osmotic minipump at 5 μl/hr for nine days at the daily delivered dose indicated above. On day nine, the tibialis anterior muscle was removed and weighed to determine the degree of atrophy.
The sciatic nerve denervation atrophy model involves anesthetizing the animal followed by the surgical removal of a short segment of either the right or left sciatic nerve, e.g., in mice the sciatic nerve is isolated approximately at the midpoint along the femur and a 3-5 mm segment is removed. This denervates the lower hind limb musculature resulting in atrophy of these muscles. Typically, innervation to the biceps femoris is left intact to provide satisfactory motion of the knee for virtually normal ambulation. Typically, in untreated animals, muscle mass of the denervated muscles is reduced 30-50% ten days following denervation. Following denervation, test compounds are administered e.g., by injection or by continuous infusion, e.g., via implantation of an osmotic minipump (e.g., Alzet, Palo Alto, Calif.), to determine their effect on denervation induced skeletal muscle atrophy. At various times following denervation, the animals are euthanized and lower leg muscles are dissected rapidly from both the denervated and nondenervated legs, the muscles, cleaned of tendons and connective tissue, are weighed. The extent of atrophy in the affected muscles is analyzed, for example, by measuring muscle mass, muscle cross-sectional area, myofiber cross-sectional area or contractile protein content.

[3] = FIG. 9A, male mice, 0.3 mg/kg s.c. twice daily + theophylline 30 mg/kg

`CC[C@H](C)[C@H](NC(=O)[C@@H](NC(=O)[C@H](CC(=O)O)NC(=O)[C@H](CC(C)C)NC(=O)[C@H](CC(C)C)NC(=O)[C@H](CC(C)C)NC(=O)[C@H](CCCNC(=N)N)NC(=O)[C@H](CC(N)=O)NC(=O)[C@H](CC(N)=O)NC(=O)[C@H](C)NC(=O)[C@H](C)NC(=O)[C@H](CCC(N)=O)NC(=O)[C@H](CCC(N)=O)NC(=O)[C@H](CCCCN)NC(=O)[C@H](CCC(=O)O)NC(=O)[C@H](CCCCN)NC(=O)[C@H](CCC(=O)O)NC(=O)[C@H](CCC(N)=O)NC(=O)[C@H](CCCCN)NC(=O)[C@H](CCC(=O)O)NC(=O)[C@@H](NC(=O)[C@H](CCC(=O)O)NC(=O)[C@@H](NC(=O)[C@H](CCSC)NC(=O)[C@H](CCCCN)NC(=O)[C@H](CCCNC(=N)N)NC(=O)[C@H](CC(C)C)NC(=O)[C@H](CC(C)C)NC(=O)[C@H](CCC(=O)O)NC(=O)[C@H](CC(C)C)NC(=O)[C@H](CO)NC(=O)[C@H](CC(C)C)NC(=O)[C@H](CC(=O)O)NC(=O)[C@@H](NC(=O)[C@H](CO)NC(=O)[C@@H](NC(=O)[C@@H]1CCCN1C(=O)[C@@H]1CCCN1C(=O)CNC(=O)[C@@H]1CCC(=O)N1)[C@@H](C)CC)[C@@H](C)CC)[C@@H](C)CC)[C@@H](C)CC)[C@@H](C)O)C(N)=O` [sauvagine] was tested, and the “disuse-induced atrophy of the tibialis anterior muscle (muscle weight)” value ([1]; FIG. 4A, casted leg, male mice, 0.03-0.3 mg/kg s.c. twice daily + theophylline 30 mg/kg i.p.) was “inhibits disuse-induced atrophy”, the “hypertrophy of the tibialis anterior muscle of the non-casted leg” value ([1]; FIG. 4A, non-casted leg, 0.03-0.3 mg/kg s.c. twice daily + theophylline 30 mg/kg i.p.) was “statistically significant hypertrophy” and the “disuse-induced atrophy of the medial gastrocnemius muscle (muscle weight)” value ([1]; FIG. 4B, casted leg, male mice, 0.03-0.3 mg/kg s.c. twice daily + theophylline 30 mg/kg i.p.) was “inhibits disuse-induced atrophy”. For the same compound, the “hypertrophy of the medial gastrocnemius muscle of the non-casted leg” value ([1]; FIG. 4B, non-casted leg, 0.03-0.3 mg/kg s.c. twice daily + theophylline 30 mg/kg i.p.) was “statistically significant hypertrophy”, the “disuse-induced loss of EDL muscle mass” value [1, 3] was “inhibits disuse-induced loss” and the “disuse-induced loss of soleus muscle mass” value [1, 3] was “inhibits disuse-induced loss”. The “loss of muscle function as assessed by measurement of absolute force” value ([1]; FIG. 9B, EDL and soleus muscles, 0.3 mg/kg s.c. twice daily + theophylline 30 mg/kg) was “inhibits loss of muscle function”, the “denervation-induced atrophy of the medial gastrocnemius muscle (muscle weight)” value ([2]; FIG. 1, male mice, 0.01-1.0 mg/kg s.c. twice daily + 30 mg/kg theophylline, nine days) was “inhibits denervation-induced atrophy” and the “denervation-induced atrophy of the tibialis anterior muscle (muscle weight)” value ([2]; FIG. 2, male mice, 0.1-1.0 mg/kg/d continuous infusion by osmotic minipump, no theophylline, day nine) was “inhibits denervation-induced atrophy”. The “denervation-induced atrophy of the tibialis anterior muscle (muscle weight)” value ([2]; FIG. 5, male mice, 1 mg/kg/d continuous infusion by osmotic minipump, no theophylline, day nine) was “inhibit denervation-induced atrophy” and the “denervation-induced atrophy of the tibialis anterior muscle (muscle weight)” value ([2]; FIG. 8, female wild-type mice, 0.3 and 1.0 mg/kg/d by osmotic minipump, nine days) was “inhibits the atrophy”.
